# From US5608095A, “Alkyl-4-silyl-phenols and esters thereof as antiatherosclerotic agents” (Hoechst Marion Roussel, Inc., priority 1996, dated 1997)
# Like-named read-outs stand apart in the source and are kept apart here.
# Key:
# [1] = Animal parameters (food, body weight, liver weight, mortality) in rats; assay type: in vivo, male Sprague-Dawley rats; details: diet 0.3%, 4 days; for mortality at 96 h: in vivo, po, read-out: mortality (deaths per group); for mortality at 96 h / body wt., percent of control / lw/bw (liver weight/body weight), percent of control: rat
# Description: (§1) A typical experiment consisted of 4-6 groups of rats (N=5 per group) with 1 group being a control which received no MDL compound and the other groups being treated with 0.3% MDL compound. Some of the compounds were either repeated at 0.3% or evaluated again at the lower dose of 0.1%. Male Sprague-Dawley rats, 50-100 g, (Harlan Laboratories, Indianapolis, Ind.) were housed in groups of 5, fed ad libitum water and Purina Rodent chow (#5002) with or without MDL compound as a dietary admixture for 4 days. Dietary admixtures (0.3%) were made by mixing 1.2 grams of an MDL compound with 400 grams of Purina rodent chow (#5002). The MDL compound was mixed with approximately 50 grams of food using a mortar and pestle. This was added to the remainder of the food and mixed for 3 hours on a rotary mixer. In the morning of day 5, non-fasted rats were anesthetized with carbon dioxide, and blood was collected by cardiac puncture. Rats were sacrificed by cervical dislocation. Body weights and liver weights were recorded in grams. Food consumption was recorded as grams.cndot.day^-1.cndot.rat^-1. Deaths were recorded as mortality. Aliquots of fresh serum were used for clinical chemistries, thiobarbituric acid reactive substances (TBARS) and conjugated diene measurements. Aliquots of serum (~0.5mL) and whole livers were frozen at -20° C. for compound and metabolite concentration determination at a later time.
# [2] = tested on: oxidation of serum lipids; test: TBARS assay, rat serum; assay type: in vivo, male Sprague-Dawley rats; details: po, 96 h, read-out: TBARS, percent of control
# Description: as §1
# In this assay the oxidation of serum lipids is initiated with CuSO4, resulting in the formation of aldehydes, such as malondialdehyde (MDA). Upon incubation with thiobarbituric acid, the absorbance of the aldehydes can be detected at 530-540 nm. As stated in the previous example, TBARS values which are lower than control serum values indicate the relative ability of a test compound to inhibit the oxidation of lipids in a sample. TBARS were measured as follows: 100 μL of serum were mixed with 400 μL of a 5 mmol CuSO4 solution and incubated at 37° C. for 3 hr. The reactions were stopped by addition of 1.0 mL of 20% trichloroacetic acid. Then 1.0 mL of 0.67% thiobarbituric acid in 0.05N sodium hydroxide was added, mixed, and the samples incubated for 30 min at 90° C. Samples were centrifuged briefly to pellet undissolved material, and the supernatants were transferred to a 96-well microtiter plate. Absorbances were measured at 540 nm using a Biotek model EL311 microplate reader. The nmoles of MDA produced were calculated from a standard curve of 0 to 10 nmoles of MDA prepared from malonaldehyde bis(dimethylacetal). Serum samples from treated rats were compared to serum samples from control rats that received no MDL compound.
# [3] = HPLC quantitation of compound and metabolite concentration in rat serum and liver; assay type: in vivo, male Sprague-Dawley rats; details: po, diet 0.3%, 4 days
# Description: as §1
# (§2) Serum and liver concentrations of parent compound and the metabolites, bisphenol and diphenoquinone, were determined by reverse phase HPLC using a Waters 990 Powerline system. Livers (1 gram samples) were homogenized with 5.0 mL PBS, pH 7.4, using a Polytron tissue homogenizer at setting 5 for 20-30 seconds. Serum or liver homogenates were extracted as follows: 100μL of either serum or homogenate were added to 2.0 mL diethyl ether:ethanol (3:1) while vortexing the tube. The sample tubes were capped and centrifuged for 10 min at 5° C. at 3500 rpm in a Beckman GPKR centrifuge with a GH 3.7 rotor. The supernatants were transferred to clean tubes and dried under N2. Samples were reconstituted with 200 μL of acetonitrile:hexane:0.1M ammonium acetate (90:6.5:3.5, by vol.). Then, 100 μL were injected onto a Waters Deltapak C18-300 Å column, and eluted with an 83% acetonitrile:17% water mobile phase at a flow rate of 1.5 mL/min. Absorbances at the wavelengths of 240, 254, and 420 nm were recorded. Compound concentrations were calculated from known quantities of authentic parent compounds after correction for recovery; the range of recovery from spiked samples was 40 to 100%. The lowest detectable limit for this class of compounds was ~0.5 μg/mL. Concentrations were calculated as μg/mL. Concentrations were calculated as μg/mL of serum and μg/g of liver.
# [4] = Clinical chemistries in serum of rats; assay type: in vivo, male Sprague-Dawley rats; details: for response vs control in vivo at 0.3 %: po, 96 h
# Description: as §1
# Blood was allowed to clot at room temperature for 30 minutes. Serum was obtained after centrifugation for 10 min at 4° C. at 3000 rpm in a Beckman J-6M/E centrifuge with a JS-4.2 rotor. Fresh serum was analyzed by a COBAS MIRA S autoanalyzer (Roche Diagnostics) using Roche diagnostic reagents for the following clinical chemistry measurements: alkaline phosphatase (ALP, kit #44553), alanine transaminase (ALT, kit #42375), aspartate aminotransferase (AST, kit #42381), total cholesterol (CHOL, kit #44334), triglyceride (TG, kit #44120), and glucose (GLU, kit #44558). ALP, ALT, and AST were calculated as units/L. Cholesterol, triglycerides, and glucose were calculated as mg/dL.
# [5] = tested on: serum cholesterol, LDL, HDL, triglycerides; test: Serum lipids and lipoprotein cholesterol in cholesterol-fed female New Zealand White rabbits; assay type: in vivo; details: Oryctolagus cuniculus, po, 168 h, rabbit serum, diet 0.26%, 7 days
# Experimental: (§3) Five independent experiments were performed in the following manner. […] Female New Zealand White rabbits (Hazelton, ~2.0-2.3 kg) were fed 0.2% cholesterol enriched rabbit chow (Purina #5322) with or without 0.4% MDL compound (except, MDL 108,804 at 0.26% and MDL 103,491 repeated at 0.6%). The MDL compounds were solubilized in 100% ethanol. MDL 108,208 was not soluble in 100% ethanol, but it was soluble in diethyl ether:ethanol (3:2 by volume). The chow was sprayed with the MDL mixtures and allowed to dry overnight in a chemical fume hood. Control chow was sprayed with ethanol. Rabbits were fed 100 grams food per day for 7 days (0.6% MDL 103,491 were fed for 14 days); water was available ad libitum. On day 7, rabbits (fasted overnight) were bled (~2 mL) from marginal ear vein; 0.6% MDL 103,491 treated rabbits were tested on day 14. They were euthanized by carbon dioxide overdose. The total body and liver weights were recorded in grams. Food consumption was recorded as grams.cndot.day^-1 .cndot.rabbit^-1. Aliquots of fresh serum were used for clinical chemistries, lipoprotein cholesterol determination, thiobarbituric acid reactive substances (TBARS) and compound and metabolite concentrations in serum. Livers (~5 gram aliquots) were frozen at -20° C. for compound and metabolite concentration determination at a later time.
# Blood was allowed to clot at room temperature for 30 minutes. Serum was obtained after centrifugation for 10 min at 5° C. at 3000 rpm in a Beckman GPKR centrifuge with a GH rotor. Fresh serum was analyzed by a COBAS MIRA autoanalyzer (Roche Diagnostics) using Roche diagnostic reagents for total cholesterol (CHOL, kit #44334) and triglyceride (TG, kit #44120). Cholesterol and triglycerides were calculated as mg/dL.
# Lipoprotein fractions (very low density lipoprotein, VLDL, low density lipoprotein, LDL and high density lipoprotein, HDL) were separated on a Sepharose 6HR column (1×30 cm, Pharmacia) attached to a Waters Powerline HPLC system. Fifty μL of serum were injected onto the column and eluted with phosphate buffered saline, pH 7.4, at a flow rate of 0.5 mL/min. Cholesterol reagent (Roche Diagnostics, kit #44334, diluted with 20 mL water and then with 20 mL of 0.9% saline) was added at 0.2 mL/min to the post column eluant and incubated in a knitted PFTE Kratos reaction coil (Applied Biosystems) at 37° C. for 5 min. Absorbance was measured at 500 nm. The lipoprotein subfractions were quantitated as follows: [formula]
# [6] = Food consumption, body and liver weight in cholesterol-fed rabbits; assay type: in vivo, female New Zealand White rabbits; details: diet 0.26%, 7 days
# Experimental: as §3
# [7] = tested on: oxidation of serum lipids; test: TBARS assay, serum of cholesterol-fed rabbits; assay type: in vivo, female New Zealand White rabbits; details: Oryctolagus cuniculus, po, 168 h; rabbit serum, diet 0.26%, 7 days; read-out: TBARS, percent of control
# Experimental: as §3
# TBARS are a qualitative indication of the oxidation of lipids in a sample. In this assay the oxidation of serum lipids is initiated with CuSO4, resulting in the formation of aldehydes, such as malondialdehyde (MDA). Upon incubation with thiobarbituric acid, the absorbance of the aldehydes can be detected at 530-540 nm. TBARS values which are lower than control serum values indicate the relative ability of a compound to inhibit the oxidation. TBARS were measured as follows: 50 μL of serum were mixed with 50 μL of 0.9% saline and 400 μL of a 5 mM CuSO4 solution and incubated at 37° C. for 5 hr. The reactions were stopped by addition of 1.0 mL of 20% trichloroacetic acid. Then 1.0 mL of 0.67% thiobarbituric acid in 0.05N sodium hydroxide was added, mixed, and the samples incubated for 30 min at 90° C. Samples were centrifuged briefly to pellet undissolved material, and the supernatants were transferred to a 96-well microtiter plate. Absorbances were measured at 540 nm using a Biotek model EL311 microplate reader. The nmoles of MDA produced were calculated from a standard curve of 0 to 10 nmoles of MDA prepared from malonaldehyde bis(dimethylacetal). Serum samples from treated rabbits were compared to serum samples from control rabbits that received no MDL compound.
# [8] = HPLC quantitation of compound and metabolite concentration in rabbit serum and liver; assay type: in vivo, female New Zealand White rabbits; details: diet 0.26%, 7 days
# Experimental: as §3
# as §2, with “of parent compounds and the” for “of parent compound and the”, “Livers (1 gram) were homogenized” for “Livers (1 gram samples) were homogenized”, “as follows: 100 μL of either” for “as follows: 100μL of either”, “1.5 mL/min. Absrobances at the” for “1.5 mL/min. Absorbances at the”, “calculated as μg/mL of” for “calculated as μg/mL. Concentrations were calculated as μg/mL of”
# [9] = rat liver, read-out: Liver Parent = parent compound concentration
# [10] = rat serum, read-out: Serum Parent = parent compound concentration
# [11] = Rattus norvegicus, read-out: CHOL (total cholesterol), percent of control
SMILES,"food (grams eaten per day per rat), percent of control [1] [%]",mortality at 96 h [1] [%],"body wt., percent of control [1] [%]","lw/bw (liver weight/body weight), percent of control [1] [%]","concentration at 96 h [3, 9] [ng/g]","concentration at 96 h [3, 10] [ng/mL]","response vs control in vivo at 0.3 % [4, 11] [%]","ALP (alkaline phosphatase), percent of control ([4]; rat serum, diet 0.3%, 4 days) [%]","ALT (alanine aminotransferase), percent of control ([4]; rat serum, diet 0.3%, 4 days) [%]","AST (aspartate aminotransferase), percent of control ([4]; rat serum, diet 0.3%, 4 days) [%]","GLUC (glucose), percent of control ([4]; rat serum, diet 0.3%, 4 days) [%]",also measured
"CC(C)(C)c1cc(OC[Si](C)(C)c2cccc(C(F)(F)F)c2)cc(C(C)(C)C)c1O [MDL 105,726, 2,6-Di-t-butyl-4-[(dimethyl-3-trifluoromethylphenylsilyl)methyloxy]phenol]",112,0,105,120,128000,17000,104,118,113,112,105,"response vs control in vivo at 0.3 % ([2]; Rattus norvegicus): 48%; response vs control in vivo at 0.3 % ([4]; Rattus norvegicus, read-out: TRIG (triglycerides), percent of control): 75%"
"CC(C)(C)c1cc(OC[Si](C)(C)Cc2ccccc2)ccc1O [MDL 108,804, 2-t-butyl-4-[(dimethylbenzylsilyl)methyloxy]phenol]",–,–,–,–,–,–,–,–,–,–,–,"response vs control in vivo at 0.26 % ([5]; read-out: HDL cholesterol, percent of control): 109%; response vs control in vivo at 0.26 % ([5]; read-out: LDL cholesterol, percent of control): 82%; response vs control in vivo at 0.26 % ([5]; read-out: TRIG (triglycerides), percent of control): 143%; response vs control in vivo at 0.26 % ([5]; read-out: chol tot. (total cholesterol), percent of control): 91%; food (grams eaten per day per rabbit), percent of control [6]: 100%; body wt., percent of control ([6]; rabbit): 101%; lw/bw (liver weight/body weight), percent of control ([6]; rabbit): 96%; response vs control in vivo at 0.26 % [7]: 49%; Liver Parent = parent compound concentration ([8]; rabbit liver): 0 µg/g; Serum Parent = parent compound concentration ([8]; rabbit serum): 0 µg/mL"
"CC(C)(C)c1cc(SC[Si](C)(C)c2ccccc2)ccc1O [MDL 104,571, 2-t-Butyl-4-[(dimethylphenylsilyl)methylthio]phenol]",108,0,97,123,500,1200,108,103,109,103,96,"response vs control in vivo at 0.3 % ([2]; rat serum, diet 0.3%, 4 days): 58%; response vs control in vivo at 0.3 % ([4]; rat serum, diet 0.3%, 4 days, read-out: TRIG (triglycerides), percent of control): 119%"
